Test results published in patent publication US20260078120A1, “SUBSTITUTED PYRIDOPYRIMIDINONES” (MIRATI THERAPEUTICS, INC., priority 2022, published 2026).
Where two headings read alike, the source gives them in different places.

Experiments:
[1] = tested on: SKBR3 (PI3Kα wild type) cells; experiment: CellTiter-Glo 2.0 luminescent cell viability assay, 72 hours, SKBR3 cells; type: cell-based; conditions: SKBR3 (PI3Kα wild type) cells, CellTiter-Glo, approximately 72 hours, read-out: SKBR3 (WT) Viability IC50
Description: (§1) The ability of a compound of Formula (I) to decrease the viability of cells was measured using CellTiter-Glo 2.0 (CTG) Luminescent Cell Viability Assay (#G9241) obtained from Promega (Madison, WI).
To prepare assay plates for viability assays, cells were trypsinized, resuspended in fresh media, and viable cells were counted utilizing trypan blue exclusion.
(§2) Assay day 1, cells were dosed using an Echo Liquid Handler (Beckman Coulter) with compounds at a 10 um starting concentration and serially diluted (1:4) for a total of 10 concentrations. Cells were incubated for approximately 72 hours with the compounds (solubilized in DMSO) at 37° C. After 72 hours of treatment, cell plates were equilibrated to room temperature before adding 15 μl of CTG to each well, plates were then covered in aluminum foil to protect from light, incubated at room temperature for 30 minutes on a microtiter plate shaker, and luminescence readings were collected using a CLARIOstar microplate reader (BMG Labtech, Germany). Percent of vehicle control values were plotted as log (inhibitor) vs. response-Variable slope (four parameters) for curve fitting and IC50 values were determined using XLfit.

[2] = tested on: T47D (PI3Kα H1047R mutant) cells; experiment: CellTiter-Glo 2.0 luminescent cell viability assay, 72 hours, T47D cells; type: cell-based; conditions: T47D (PI3Kα H1047R mutant) cells, CellTiter-Glo, approximately 72 hours, read-out: T47D (H1047R mutant) Viability IC50
Description: This Example illustrates that exemplary compounds of the present invention decrease the viability of cells.
as §1
To prepare assay plates for viability assays, cells were trypsinized, resuspended in fresh media, and viable cells were counted utilizing trypan blue exclusion. T47D, SKBR3, or MKN1 cells were seeded at 1000 cells in 30 μl per well in a solid white flat bottom 384 cell culture plate (Perkin Elmer #6007680) and incubated at 37° C. overnight.
as §2

| Structure (SMILES) | IC50 ([1]; Homo sapiens, SK-BR-3, 72 h) | IC50 ([2]; Homo sapiens, T47D, 72 h) | IC50 [1] | IC50 [2] |
| --- | --- | --- | --- | --- |
| Cc1cc([C@@H](C)Nc2ccccc2C(=O)O)c2nc(NC[C@@H]3CCOC3)c(C#N)c(=O)n2c1 [Example 11-192, 2-(((R)-1-(3-cyano-7-methyl-4-oxo-2-((((S)-tetrahydrofuran-3-yl)methyl)amino)-4H-pyrido[1,2-a]pyrimidin-9-yl)ethyl)amino)benzoic acid] | > 10 µM | 2.44 µM |  |  |
| Cc1cc(C(C)Nc2ccccc2C(=O)O)c2nc(C3CCN(C)C(=O)C3)cc(=O)n2c1 (stereo not drawn) [Example 11-377, 2-((1-(7-methyl-2-(1-methyl-2-oxopiperidin-4-yl)-4-oxo-4H-pyrido[1,2-a]pyrimidin-9-yl)ethyl)amino)benzoic acid] | > 10 µM | 3.63 µM |  |  |
| Cc1cc(C(C)Nc2ccccc2C(=O)O)c2nc(Oc3ccccc3)cc(=O)n2c1 (stereo not drawn) [Example 11-341, 2-((1-(7-methyl-4-oxo-2-phenoxy-4H-pyrido[1,2-a]pyrimidin-9-yl)ethyl)amino)benzoic acid] | > 10 µM | > 10 µM |  |  |
| Cc1cc([C@@H](C)Nc2ccccc2C(=O)O)c2nc(N3CC4CC(F)(F)CC4C3)c(C)c(=O)n2c1 (stereo partly drawn) [Example 11-444, 2-(((1R)-1-(2-(5,5-difluorohexahydrocyclopenta[c]pyrrol-2(1H)-yl)-3,7-dimethyl-4-oxo-4H-pyrido[1,2-a]pyrimidin-9-yl)ethyl)amino)benzoic acid] | > 10 µM | 0.234 µM |  |  |
| Cc1cc([C@@H](C)Nc2ccccc2C(=O)O)c2nc(N3CCC(F)(F)C(C)C3)c(C)c(=O)n2c1 (stereo partly drawn) [Example 11-65, 2-(((1R)-1-(2-(4,4-difluoro-3-methylpiperidin-1-yl)-3,7-dimethyl-4-oxo-4H-pyrido[1,2-a]pyrimidin-9-yl)ethyl)amino)benzoic acid] | > 10 µM | 0.146 µM |  |  |
| Cc1cc(C(C)Nc2ccccc2C(=O)O)c2nc(-c3ccncc3)cc(=O)n2c1 (stereo not drawn) [Example 11-400, 2-((1-(7-methyl-4-oxo-2-(pyridin-4-yl)-4H-pyrido[1,2-a]pyrimidin-9-yl)ethyl)amino)benzoic acid] | > 10 µM | 1.05 µM |  |  |
| Cc1cc([C@@H](C)Nc2ccccc2C(=O)O)c2nc(N3CCN(c4ccccc4C#N)C[C@H]3C)c(C)c(=O)n2c1 [Example 11-83, 2-(((R)-1-(2-((R)-4-(2-cyanophenyl)-2-methylpiperazin-1-yl)-3,7-dimethyl-4-oxo-4H-pyrido[1,2-a]pyrimidin-9-yl)ethyl)amino)benzoic acid] | > 10 µM | 0.157 µM |  |  |
| Cc1cc([C@@H](C)Nc2ccccc2C(=O)O)c2nc(NCC3CC3)c(C)c(=O)n2c1 [Example 11-207, (R)-2-((1-(2-((cyclopropylmethyl)amino)-3,7-dimethyl-4-oxo-4H-pyrido[1,2-a]pyrimidin-9-yl)ethyl)amino)benzoic acid] | > 10 µM | 0.342 µM |  |  |
| Cc1cc([C@@H](C)Nc2cccc(F)c2C(=O)O)c2nc(N3Cc4ccccc4C3)c(C#N)c(=O)n2c1 [Example 11-307, (R)-2-((1-(3-cyano-2-(isoindolin-2-yl)-7-methyl-4-oxo-4H-pyrido[1,2-a]pyrimidin-9-yl)ethyl)amino)-6-fluorobenzoic acid] | > 10 µM | 0.379 µM |  |  |
| Cc1cc([C@@H](C)Nc2ccccc2C(=O)O)c2nc(N3CCN(c4ccc(C(F)(F)F)cc4C#N)C[C@H]3C)c(C)c(=O)n2c1 [Example 11-79, 2-(((R)-1-(2-((R)-4-(2-cyano-4-(trifluoromethyl)phenyl)-2-methylpiperazin-1-yl)-3,7-dimethyl-4-oxo-4H-pyrido[1,2-a]pyrimidin-9-yl)ethyl)amino)benzoic acid] | 4.55 µM | 0.187 µM |  |  |
| Cc1cc(C(C)Nc2ccccc2C(=O)O)c2nc(-c3ccccc3C)cc(=O)n2c1 (stereo not drawn) [Example 11-395, 2-((1-(7-methyl-4-oxo-2-(o-tolyl)-4H-pyrido[1,2-a]pyrimidin-9-yl)ethyl)amino)benzoic acid] | > 10 µM | > 10 µM |  |  |
| Cc1cc([C@@H](C)Nc2ccccc2C(=O)O)c2nc(NCC3CC3(F)F)c(C#N)c(=O)n2c1 (stereo partly drawn) [Example 11-158, 2-(((1R)-1-(3-cyano-2-(((2,2-difluorocyclopropyl)methyl)amino)-7-methyl-4-oxo-4H-pyrido[1,2-a]pyrimidin-9-yl)ethyl)amino)benzoic acid] | > 10 µM | 0.167 µM |  |  |
| Cc1cc([C@@H](C)Nc2ccccc2C(=O)O)c2nc(N3CC4CC(C)(C)C4C3)c(C)c(=O)n2c1 (stereo partly drawn) [Example 11-24, 2-(((1R)-1-(2-(6,6-dimethyl-3-azabicyclo[3.2.0]heptan-3-yl)-3,7-dimethyl-4-oxo-4H-pyrido[1,2-a]pyrimidin-9-yl)ethyl)amino)benzoic acid] | > 10 µM | 0.123 µM |  |  |

Results, then the molecule that gave them:

| IC50 ([1]; Homo sapiens, SK-BR-3, 72 h) | IC50 ([2]; Homo sapiens, T47D, 72 h) | IC50 [1] | IC50 [2] | Structure (SMILES) |
| --- | --- | --- | --- | --- |
| > 10 µM | 0.184 µM |  |  | COC1CN(c2nc3c([C@@H](C)Nc4ccccc4C(=O)O)cc(C)cn3c(=O)c2C)C1 [Example 11-112, (R)-2-((1-(2-(3-methoxyazetidin-1-yl)-3,7-dimethyl-4-oxo-4H-pyrido[1,2-a]pyrimidin-9-yl)ethyl)amino)benzoic acid] |
| > 10 µM | 0.0611 µM |  |  | Cc1cc([C@@H](C)Nc2ccccc2C(=O)O)c2nc(N3CCC(O)(C(C)C)C3)c(C)c(=O)n2c1 (stereo partly drawn) [Example 10-135, 2-(((1R)-1-(2-(3-hydroxy-3-isopropylpyrrolidin-1-yl)-3,7-dimethyl-4-oxo-4H-pyrido[1,2-a]pyrimidin-9-yl)ethyl)amino)benzoic acid] |
|  |  | > 10 µM | 0.152 µM | Cc1cc([C@@H](C)Nc2ccccc2C(=O)O)c2nc(N3Cc4cc(F)c(F)cc4C3)c(C)c(=O)n2c1 [Example 11-188, (R)-2-((1-(2-(5,6-difluoroisoindolin-2-yl)-3,7-dimethyl-4-oxo-4H-pyrido[1,2-a]pyrimidin-9-yl)ethyl)amino)benzoic acid] |
| > 10 µM | 0.387 µM |  |  | Cc1cc([C@@H](C)Nc2ccccc2C(=O)O)c2nc(N3CCC(C(F)(F)F)CC3)c(C)c(=O)n2c1 [Example 11-71, (R)-2-((1-(3,7-dimethyl-4-oxo-2-(4-(trifluoromethyl)piperidin-1-yl)-4H-pyrido[1,2-a]pyrimidin-9-yl)ethyl)amino)benzoic acid] |
| > 10 µM | > 10 µM |  |  | Cc1cc(C(C)Nc2ccccc2C(=O)O)c2nc(N3CCCC(O)C3)cc(=O)n2c1 (stereo not drawn) [Example 11-343, 2-((1-(2-(3-hydroxypiperidin-1-yl)-7-methyl-4-oxo-4H-pyrido[1,2-a]pyrimidin-9-yl)ethyl)amino)benzoic acid] |
| > 10 µM | 0.119 µM |  |  | Cc1cc([C@@H](C)Nc2ccccc2C(=O)O)c2nc(N3CCC(F)(F)C3)c(C)c(=O)n2c1 [Example 11-140, (R)-2-((1-(2-(3,3-difluoropyrrolidin-1-yl)-3,7-dimethyl-4-oxo-4H-pyrido[1,2-a]pyrimidin-9-yl)ethyl)amino)benzoic acid] |
| > 10 µM | > 10 µM |  |  | Cc1cc([C@@H](C)Nc2ccccc2C(=O)O)c2nc(N3CCC(N(C)C)CC3)c(C#N)c(=O)n2c1 [Example 11-313, (R)-2-((1-(3-cyano-2-(4-(dimethylamino)piperidin-1-yl)-7-methyl-4-oxo-4H-pyrido[1,2-a]pyrimidin-9-yl)ethyl)amino)benzoic acid] |
| > 10 µM | 0.136 µM |  |  | Cc1cc([C@@H](C)Nc2ccccc2C(=O)O)c2nc(N3CC4C5CCC(C5O)C4C3)c(C)c(=O)n2c1 (stereo partly drawn) [Example 11-35, 2-(((1R)-1-(2-(8-hydroxyoctahydro-2H-4,7-methanoisoindol-2-yl)-3,7-dimethyl-4-oxo-4H-pyrido[1,2-a]pyrimidin-9-yl)ethyl)amino)benzoic acid] |
| > 10 µM | 6.29 µM |  |  | Cc1cc([C@H](C)Nc2ccc(C(F)(F)F)nc2C(=O)O)c2nc(N3Cc4ccccc4C3)c(C)c(=O)n2c1 [Example 11-353, (S)-3-((1-(2-(isoindolin-2-yl)-3,7-dimethyl-4-oxo-4H-pyrido[1,2-a]pyrimidin-9-yl)ethyl)amino)-6-(trifluoromethyl) picolinic acid] |
| > 10 µM | 0.383 µM |  |  | Cc1cc([C@@H](C)Nc2ccccc2C(=O)O)c2nc(NC[C@@H]3CCOC3)c(C)c(=O)n2c1 [Example 11-195, 2-(((R)-1-(3,7-dimethyl-4-oxo-2-((((S)-tetrahydrofuran-3-yl)methyl)amino)-4H-pyrido[1,2-a]pyrimidin-9-yl)ethyl)amino)benzoic acid] |
| > 10 µM | 7.64 µM |  |  | Cc1cc(C(C)Nc2ccccc2C(=O)O)c2nc(-c3cn[nH]c3)cc(=O)n2c1 (stereo not drawn) [Example 11-373, 2-((1-(7-methyl-4-oxo-2-(1H-pyrazol-4-yl)-4H-pyrido[1,2-a]pyrimidin-9-yl)ethyl)amino)benzoic acid] |
